Experimental findings from PubChem BioAssay AID2060485 (Molecular Pharmacology Branch, DTP, NCI, 2025) are described below.

What is called IC50 is the midpoint of a concentration-inhibition curve. Broadly, the viability, T/C is the result in the treated group divided by that in the control group, in per cent.

Molecules are shown by their SMILES. Several values for one entry are separate records, joined by “and”; a condition that tells them apart may be missing. Identical values can stand only once.

In the assay the test system is A375 multi-cell spheroids with HUVEC/MSC, viability. Kind of assay: Anticancer human tumor A375 cell line growth inhibition [GQUAD].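 On all read-outs here: spheroids exposed to compounds for seven days before readout.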 Conditions: for viability, T/C: stronger effect = lower value. The text has this: DNA G-quadruplex Stabilizer Agents in Combinations in Complex Spheroids
A high-throughput screen of multi-cell type tumor spheroids was designed to identify active combinations of DNA G-quadruplex stabilizer agents and targeted small molecules. Complex spheroids include a stromal component modeled by human endothelial cells (HUVEC) and fibroblasts modeled by human mesenchymal stem cells (MSCs). The concentration ranges selected for each drug and investigational agent were based upon clinically achievable concentrations if the clinical Cmax of the agent was known.
Compounds. The drugs and investigational agents: pidnarulex (CX-5461; NSC782164), APTO-253 (NSC789042), BRACO-19 (NSC847499), peposertib (NSC802822), ceralasertib (NSC780249), elimusertib (NSC800525), camonsertib (NSC841442), AZD-1390 (NSC803789), olaparib (NSC753686), talazoparib (NSC767125), ART-558 (NSC835418), sotorasib (NSC818433), MRTX-1133 (NSC836407), SN-38 (NSC673596), topotecan (NSC609699), etoposide (NSC141540), doxorubicin (NSC123127), gemcitabine (NSC613327), 5-fluorouracil (NSC19893), paclitaxel (NSC125973), vemurafenib (NSC761431), panobinostat (NSC761190), R-306465 (JNJ-16241199; NSC773264), adavosertib (NSC754352), TP-3654 (NSC805149), carboplatin (NSC241240), KSQ-4279 (NSC840948), and staurosporine (NSC755774) were obtained from the National Cancer Institute (NCI) Developmental Therapeutics Program Chemical Repository (34). The FDA-approved anticancer drug set is available from the NCI Developmental Therapeutics Program. […] The stock solutions were prepared in dimethyl sulfoxide (DMSO, Sigma-Aldrich, St. Louis, MO, cat. D2650) at 800-fold the tested concentration and stored at -70 degrees C prior to their use. All drugs and investigational agents were tested over a range starting from a high concentration at or near the clinical Cmax and decreasing in half-log increments. If the clinical Cmax for an agent had not been determined, the highest concentration tested was 10 microM.
2.3 Cell Culture. All cells were maintained in an incubator at 37 degrees C and 5% CO2 with 95% humidity. The PDC lines were cultured according to standard operating procedures established by the NCI PDMR. All PDCs were thawed and cultured in Matrigel-coated flasks prepared with a working solution of 1X Ham's F-12 nutrient mix, without supplementation (Invitrogen, cat. 11765054), 100 U/mL penicillin-streptomycin (Invitrogen, cat. 15140122), and 2.5% Matrigel (Corning Inc., cat. 354248) for the first three passages. The 857933-349-R-J2-PDC line was cultured in 6C/Colon 1B media, which includes advanced DMEM/F-12 (Thermo Fisher Scientific, cat. 12634028), 10 mM HEPES (Thermo Fisher Scientific, cat. 15630080), 1X GlutaMAX supplement (Thermo Fisher Scientific, cat. 35050061), 0.1 mg/mL primocin (InvivoGen, cat. ant-pm-2), 10% defined fetal bovine serum, heat inactivated (HyClone Laboratories Inc., cat. SH30070.03HI), 50% L-WRN conditioned media (ATCC, cat. CRL-3276), 1.25 mM N-Acetyl-L-cysteine (Sigma-Aldrich, cat. A9165), 10 mM nicotinamide (Sigma-Aldrich, cat. N0636), 1X B-27 supplement (Thermo Fisher Scientific, cat. 17504044), 1X N-2 supplement (Thermo Fisher Scientific, cat. 17502048), 10 microM Y-27632 dihydrochloride (Tocris Bioscience, cat. 1254), and 50 ng/mL human EGF recombinant protein (Thermo Fisher Scientific, cat. PHG0311). The 485176-168-R4-J1-PDC line was cultured in Panc media, which includes all 6C/Colon 1B media components plus 100 ng/mL human FGF-10 (Thermo Fisher Scientific, cat. 100-26), 500 nM SB-431542 (Selleckchem, cat. S1067), and gastrin (Tocris, cat. 3006).
[…]

The mark [1] stands for this setting: curve of first compound, second compound 0.0316 µM.
Setting [2] is: curve of first compound, second compound 0.1 µM.
[3] abbreviates: curve of first compound, second compound 0.316 µM.
[4] abbreviates: curve of first compound, second compound 1 µM.
[5] abbreviates: curve of first compound, second compound 3.16 µM.
[6] abbreviates: curve of first compound, second compound 10 µM.
Setting [7] is: second compound 0.0316 µM, first compound 0.000999 µM.
Setting [8] is: second compound 0.0316 µM, first compound 0.00316 µM.
[9] abbreviates: second compound 0.0316 µM, first compound 0.00999 µM.
The mark [10] stands for this setting: second compound 0.0316 µM, first compound 0.0316 µM.
Setting [11] is: second compound 0.0316 µM, first compound 0.0999 µM.
Setting [12] is: second compound 0.0316 µM, first compound 0.316 µM.
Setting [13] is: second compound 0.1 µM, first compound 0.000999 µM.
Where [14] appears, read: second compound 0.1 µM, first compound 0.00316 µM.
Setting [15] is: second compound 0.1 µM, first compound 0.00999 µM.
[16] abbreviates: second compound 0.1 µM, first compound 0.0316 µM.
Setting [17] is: second compound 0.1 µM, first compound 0.0999 µM.
Setting [18] is: second compound 0.1 µM, first compound 0.316 µM.
Where [19] appears, read: second compound 0.316 µM, first compound 0.000999 µM.
[20] abbreviates: second compound 0.316 µM, first compound 0.00316 µM.
Where [21] appears, read: second compound 0.316 µM, first compound 0.00999 µM.
Setting [22] is: second compound 0.316 µM, first compound 0.0316 µM.
Setting [23] is: second compound 0.316 µM, first compound 0.0999 µM.
[24] abbreviates: second compound 0.316 µM, first compound 0.316 µM.
Setting [25] is: second compound 1 µM, first compound 0.000999 µM.
[26] abbreviates: second compound 1 µM, first compound 0.00316 µM.
[27] abbreviates: second compound 1 µM, first compound 0.00999 µM.
Where [28] appears, read: second compound 1 µM, first compound 0.0316 µM.
The mark [29] stands for this setting: second compound 1 µM, first compound 0.0999 µM.
Setting [30] is: second compound 1 µM, first compound 0.316 µM.
Where [31] appears, read: second compound 3.16 µM, first compound 0.000999 µM.
Where [32] appears, read: second compound 3.16 µM, first compound 0.00316 µM.
[33] abbreviates: second compound 3.16 µM, first compound 0.00999 µM.
Where [34] appears, read: second compound 3.16 µM, first compound 0.0316 µM.
[35] abbreviates: second compound 3.16 µM, first compound 0.0999 µM.
Where [36] appears, read: second compound 3.16 µM, first compound 0.316 µM.
[37] abbreviates: second compound 10 µM, first compound 0.000999 µM.
[38] abbreviates: second compound 10 µM, first compound 0.00316 µM.
The mark [39] stands for this setting: second compound 10 µM, first compound 0.00999 µM.
[40] abbreviates: second compound 10 µM, first compound 0.0316 µM.
[41] abbreviates: second compound 10 µM, first compound 0.0999 µM.
Setting [42] is: second compound 10 µM, first compound 0.316 µM.

Regarding `Cn1ncnc1[C@H]1c2n[nH]c(=O)c3cc(F)cc(c23)N[C@@H]1c1ccc(F)cc1` + Cc1cnc(CNC(=O)c2c(=O)c3ccc(N4CCCN(C)CC4)nc3n3c2sc2ccccc23)cn1, the IC50 reads like this: under setting [1], over 316 nM; under setting [2], over 316 nM; under setting [3], 40.3 nM; under setting [4], under 0.999 nM; under setting [5], under 0.999 nM; under setting [6], under 0.999 nM. Further, the viability, T/C is 100% under setting [7]; 98.9% under setting [8]; 107% under setting [9]; 97.4% under setting [10]; 75.6% under setting [11]; 90.6% under setting [12]. In addition, the viability, T/C is 98.7% under setting [13]; 73.7% under setting [14]; 72.2% under setting [15]; 68.9% under setting [16]; 55.7% under setting [17]; 60.5% under setting [18]. For the same molecule, the viability, T/C runs as follows: under setting [19], 55.8%; under setting [20], 55.5%; under setting [21], 49.4%; under setting [22], 53.8%; under setting [23], 46.6%; under setting [24], 43%. In addition, the viability, T/C runs as follows: under setting [25], 39%; under setting [26], 47.1%; under setting [27], 44.3%; under setting [28], 41.8%; under setting [29], 41.4%; under setting [30], 44.3%. Moreover, the viability, T/C reads like this: under setting [31], 35.9%; under setting [32], 43.8%; under setting [33], 34.2%; under setting [34], 30.3%; under setting [35], 34.2%; under setting [36], 32.7%. Moreover, the viability, T/C was 29.1% under setting [37]; 32.7% under setting [38]; 33% under setting [39]; 32.4% under setting [40]; 36.2% under setting [41]; 32.3% under setting [42].
With `CC(C)n1c(=O)n(C)c2cnc3cc(F)c(-c4ccc(OCCCN5CCCCC5)nc4)cc3c21`, the viability, T/C is, setting by setting: (compound 0.0316 µM) 103% and 99.6% and 97.1%; (compound 0.1 µM) 92.8% and 105% and 111%; (compound 0.316 µM) 96.4% and 103% and 99.7%; (compound 1 µM) 97.4% and 108% and 98.7%; (compound 3.16 µM) 102% and 114% and 109%; (compound 10 µM) 94.5% and 85.4% and 97.5%. Besides, under “curve of compound”, the IC50 was over 10000 nM.
As to `CC1COCCN1c1cc(-c2ccnn2C)c2ccnc(-c3ccn[nH]3)c2n1` (centres undefined), the viability, T/C by setting is: (compound 0.0316 µM) 106% and 103% and 105%; (compound 0.1 µM) 87.6% and 77% and 93.2%; (compound 0.316 µM) 75.4% and 49.7% and 69.2%; (compound 1 µM) 38.9% and 25% and 31.8%; (compound 3.16 µM) 13.2% and 9.89% and 11.6%; (compound 10 µM) 11.8% and 10.5% and 11.2%. Moreover, where the note is “curve of compound”, the IC50 is 677 nM and 294 nM and 561 nM.
As to `COc1ccc([C@@H](O)c2cc(-c3ncnc4cc(N5CCOCC5)ccc34)c(F)cc2Cl)nn1`, the viability, T/C is, setting by setting: (compound 0.0316 µM) 97.1% and 112%; (compound 0.1 µM) 107% and 117%; (compound 0.316 µM) 102% and 98.3%; (compound 1 µM) 101% and 103%; (compound 3.16 µM) 100% and 91%; (compound 10 µM) 83% and 67.6%. The IC50 (curve of compound) is over 10000 nM.
`CC(=O)O[C@H]1C(=O)[C@@]2(C)[C@H]([C@H](OC(=O)c3ccccc3)[C@]3(O)C[C@H](OC(=O)[C@H](O)[C@@H](NC(=O)c4ccccc4)c4ccccc4)C(C)=C1C3(C)C)[C@]1(OC(C)=O)CO[C@@H]1C[C@@H]2O`: the viability, T/C (compound 0.0316 µM) is 68.9% and 90.7% and 112%; the viability, T/C (compound 0.1 µM) is 18.1% and 20.5% and 32.6%; the viability, T/C (compound 0.316 µM) was 9.64% and 11.9% and 16.6%; the viability, T/C (compound 1 µM) is 9.68% and 8.91% and 13.8%; the viability, T/C (compound 3.16 µM) was 7.88% and 12.2% and 13.3%; the viability, T/C (compound 10 µM) was 10.8% and 15.2% and 17.8%. Besides, where the note is “curve of compound”, the IC50 is 48.5 nM and 61.6 nM and 77.6 nM.
`CC[C@@]1(O)C(=O)OCc2c1cc1n(c2=O)Cc2cc3c(CN(C)C)c(O)ccc3nc2-1` + Cc1[nH]c2ccc(F)cc2c1-c1nc2c3cccnc3c3ncccc3c2[nH]1: the IC50 turned out to be 52.8 nM under setting [1]; 53.8 nM under setting [2]; 52.4 nM under setting [3]; 46.9 nM under setting [4]; 38.4 nM under setting [5]; 46.1 nM under setting [6]. For the same molecule, the viability, T/C was 109% under setting [7]; 110% under setting [8]; 109% under setting [9]; 71.6% under setting [10]; 23.4% under setting [11]; 12.9% under setting [12]. The viability, T/C is, setting by setting: under setting [13], 98.5%; under setting [14], 105%; under setting [15], 111%; under setting [16], 73.3%; under setting [17], 23.7%; under setting [18], 14%. For the same molecule, the viability, T/C reads like this: under setting [19], 109%; under setting [20], 108%; under setting [21], 114%; under setting [22], 69.9%; under setting [23], 25.9%; under setting [24], 13.6%. For the same molecule, the viability, T/C was 118% under setting [25]; 107% under setting [26]; 125% under setting [27]; 65.4% under setting [28]; 27.4% under setting [29]; 13.8% under setting [30]. In addition, the viability, T/C runs as follows: under setting [31], 92.7%; under setting [32], 88.1%; under setting [33], 86.4%; under setting [34], 51.6%; under setting [35], 30.7%; under setting [36], 16.3%. Besides, the viability, T/C under setting [37] is 92.2%; the viability, T/C under setting [38] was 101%; the viability, T/C under setting [39] was 105%; the viability, T/C under setting [40] is 62.9%; the viability, T/C under setting [41] was 26.1%; the viability, T/C under setting [42] is 14.6%.
On to `Cc1cccc(N(C)C(=O)C2C(O)CCN2c2nc(C)cc(C(F)(F)F)c2C#N)c1` (centres undefined), for which the viability, T/C (compound 0.0316 µM) was 110% and 103% and 101%; the viability, T/C (compound 0.1 µM) is 94.9% and 106% and 101%; the viability, T/C (compound 0.316 µM) was 97.7% and 98.8% and 106%; the viability, T/C (compound 1 µM) was 97.1% and 104% and 90.2%; the viability, T/C (compound 3.16 µM) was 96.7% and 109% and 108%; the viability, T/C (compound 10 µM) was 97.8% and 103% and 95%. Further, the IC50 (curve of compound) was over 10000 nM.
